Measurements reported in the NIST ThermoML archive (doi:10.1016/j.jct.2012.01.008).

Experiment: xn = mol fraction of the nth substance listed
Details: Liquid, Vibrating tube method

CCC[N+]1(C)CCCCC1.O=S(=O)([N-]S(=O)(=O)C(F)(F)F)C(F)(F)F + CC(=O)c1ccccc1
mass density [kg/m3]
Details | 100 kPa | 10000 kPa | 15000 kPa | 20000 kPa | 25000 kPa | 30000 kPa | 35000 kPa | 40000 kPa | 45000 kPa | 50000 kPa
298.15 K, x2 = 0.1024 | 1393.3 | 1399.9 | 1402.9 | 1406 | 1408.8 | 1411.6 | 1414.3 | 1417.1 | 1419.8 | 1422.4
298.15 K, x2 = 0.2007 | 1376 | 1382.5 | 1385.4 | 1388.5 | 1391.3 | 1394.1 | 1396.8 | 1399.5 | 1402.2 | 1404.8
298.15 K, x2 = 0.3001 | 1355.5 | 1361.8 | 1364.8 | 1367.9 | 1370.7 | 1373.5 | 1376.2 | 1379 | 1381.7 | 1384.3
298.15 K, x2 = 0.4001 | 1331.8 | 1338 | 1341 | 1344.1 | 1346.9 | 1349.7 | 1352.4 | 1355.1 | 1357.8 | 1360.4
298.15 K, x2 = 0.5008 | 1303.8 | 1309.9 | 1312.8 | 1315.8 | 1318.5 | 1321.3 | 1324 | 1326.6 | 1329.3 | 1331.8
298.15 K, x2 = 0.6001 | 1270.5 | 1276.6 | 1279.5 | 1282.5 | 1285.2 | 1287.9 | 1290.5 | 1293.2 | 1295.7 | 1298.2
298.15 K, x2 = 0.7003 | 1229.4 | 1235.5 | 1238.3 | 1241.2 | 1243.9 | 1246.5 | 1249.1 | 1251.7 | 1254.2 | 1256.7
298.15 K, x2 = 0.7999 | 1178 | 1184 | 1186.8 | 1189.7 | 1192.3 | 1194.9 | 1197.5 | 1200.1 | 1202.6 | 1205
298.15 K, x2 = 0.8998 | 1111.5 | 1117.3 | 1120 | 1122.7 | 1125.2 | 1127.8 | 1130.4 | 1133 | 1135.4 | 1137.8
318.15 K, x2 = 0.1024 | 1376.7 | 1383.4 | 1386.8 | 1389.8 | 1392.8 | 1395.8 | 1398.8 | 1401.6 | 1404.5 | 1407.1
318.15 K, x2 = 0.2007 | 1359 | 1365.7 | 1369.1 | 1372.1 | 1375.1 | 1378.1 | 1381.1 | 1383.9 | 1386.7 | 1389.3
318.15 K, x2 = 0.3001 | 1338.4 | 1345.1 | 1348.5 | 1351.5 | 1354.5 | 1357.5 | 1360.5 | 1363.3 | 1366.1 | 1368.7
318.15 K, x2 = 0.4001 | 1314.6 | 1321.3 | 1324.7 | 1327.7 | 1330.7 | 1333.7 | 1336.5 | 1339.3 | 1342.1 | 1344.8
318.15 K, x2 = 0.5008 | 1286.6 | 1293.1 | 1296.5 | 1299.5 | 1302.4 | 1305.4 | 1308.2 | 1310.9 | 1313.7 | 1316.3
318.15 K, x2 = 0.6001 | 1253.2 | 1259.8 | 1263.1 | 1266.1 | 1269 | 1271.9 | 1274.8 | 1277.4 | 1280.2 | 1282.8
318.15 K, x2 = 0.7003 | 1212 | 1218.5 | 1221.8 | 1224.7 | 1227.7 | 1230.6 | 1233.4 | 1236 | 1238.7 | 1241.3
318.15 K, x2 = 0.7999 | 1160.6 | 1167.1 | 1170.2 | 1173.1 | 1176 | 1178.8 | 1181.7 | 1184.2 | 1186.9 | 1189.5
318.15 K, x2 = 0.8998 | 1093.9 | 1100.3 | 1103.4 | 1106.3 | 1109.2 | 1112 | 1114.9 | 1117.4 | 1120.1 | 1122.6
348.15 K, x2 = 0.1024 | 1350.8 | 1357.9 | 1361.5 | 1365.1 | 1368.5 | 1371.7 | 1374.9 | 1377.9 | 1381 | 1383.8
348.15 K, x2 = 0.2007 | 1333 | 1340.3 | 1344 | 1347.5 | 1350.9 | 1354.1 | 1357.4 | 1360.4 | 1363.4 | 1366.2
348.15 K, x2 = 0.3001 | 1312.4 | 1319.7 | 1323.4 | 1327 | 1330.4 | 1333.7 | 1336.8 | 1339.9 | 1342.8 | 1345.6
348.15 K, x2 = 0.4001 | 1288.5 | 1295.8 | 1299.5 | 1303 | 1306.4 | 1309.6 | 1312.8 | 1315.8 | 1318.8 | 1321.6
348.15 K, x2 = 0.5008 | 1260.2 | 1267.6 | 1271.2 | 1274.6 | 1277.9 | 1281.2 | 1284.3 | 1287.3 | 1290.3 | 1293.1
348.15 K, x2 = 0.6001 | 1226.6 | 1234.1 | 1237.7 | 1241.1 | 1244.4 | 1247.7 | 1250.8 | 1253.8 | 1256.8 | 1259.6
348.15 K, x2 = 0.7003 | 1185.5 | 1193 | 1196.6 | 1199.9 | 1203.2 | 1206.5 | 1209.6 | 1212.6 | 1215.6 | 1218.4
348.15 K, x2 = 0.7999 | 1134.2 | 1141.7 | 1145.2 | 1148.6 | 1151.8 | 1155.1 | 1158.2 | 1161.2 | 1164.2 | 1167
348.15 K, x2 = 0.8998 | 1067.9 | 1075.4 | 1078.9 | 1082.1 | 1085.4 | 1088.6 | 1091.7 | 1094.7 | 1097.7 | 1100.4
